Results: patent US12091402B2 (Avilar Therapeutics, Inc., priority 2021, dated 2024)

Columns and labels:
IgG = experiment: Affinity to IgG by surface plasmon resonance (SPR); type: binding; details: SPR; read-out: IgG KD
Description: Immobilization levels ranging from 1000-1300 resonance units (RU) are obtained. The running buffer is 10 mM HEPES, pH 7.4, 400 mM NaCl, 0.005% P20, […].

[1] = molecular target: T1, ASGPR receptor on the cell surface (HepG2 cells) (Homo sapiens, UniProt P07306); experiment: Ternary complex formation assay (flow cytometry, HepG2); type: cell-based; details: HepG2 cells, ternary complex formation; read-out: TCF EC50
T1 construct: host or cells: HepG2
T1 sequence (P07306 1-291): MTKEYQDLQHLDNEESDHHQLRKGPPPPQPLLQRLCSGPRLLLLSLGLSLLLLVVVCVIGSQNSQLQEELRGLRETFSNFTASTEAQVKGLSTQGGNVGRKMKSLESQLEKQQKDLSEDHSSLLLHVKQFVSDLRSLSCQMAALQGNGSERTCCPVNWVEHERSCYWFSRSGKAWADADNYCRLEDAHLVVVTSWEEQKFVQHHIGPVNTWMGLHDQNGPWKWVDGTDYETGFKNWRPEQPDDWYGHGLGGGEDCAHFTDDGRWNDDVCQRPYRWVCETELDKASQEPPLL
T1 sequence (P07307 1-311 partner): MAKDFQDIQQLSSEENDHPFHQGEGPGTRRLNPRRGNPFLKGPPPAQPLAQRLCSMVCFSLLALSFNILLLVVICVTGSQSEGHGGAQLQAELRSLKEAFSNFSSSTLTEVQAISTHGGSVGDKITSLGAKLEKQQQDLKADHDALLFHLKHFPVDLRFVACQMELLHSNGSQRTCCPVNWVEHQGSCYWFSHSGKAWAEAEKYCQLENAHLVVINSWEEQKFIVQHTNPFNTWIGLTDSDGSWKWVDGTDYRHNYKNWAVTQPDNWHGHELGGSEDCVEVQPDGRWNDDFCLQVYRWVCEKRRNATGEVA
Procedure, shortened: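 HepG2 cells (1×10^5/well) incubated 1 h at 4 °C with 100 nM AF488-labeled anti-human IgG plus serial IgG-based degrader, or 100 nM AF488 rabbit anti-DNP plus serial DNP-based degrader. After washing, cell-associated AF488 MFI read by flow cytometry; peak MFI marks optimal degrader concentration for ternary complex.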

HepG2 cells = experiment: Cellular uptake assay of AF488-labeled antibody (HepG2); type: cell-based; details: HepG2 cells; read-out: Uptake EC50
Procedure, shortened: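 HepG2 cells given 100 nM AF488-labeled human IgG or DNP antibody plus serial dilutions of matching degrader (0.1% DMSO final), 6 h at 37° C. Methanol-fixed, DAPI-stained and imaged by high-content analysis. Value is the fraction of AF488-positive cells over total DAPI-counted cells.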

ASGPR = molecular target: T2, ASGPR (Homo sapiens, UniProt P07306); experiment: Affinity to ASGPR by surface plasmon resonance (SPR)
T2 sequence (P07306 1-291): T1 sequence (P07306 1-291)

| SMILES | Kd (IgG) [µM] | EC50 [1] [µM] | EC50 (HepG2 cells) [µM] | Kd (ASGPR) [µM] |
| --- | --- | --- | --- | --- |
| CC(C)C[C@@H]1NC(=O)[C@H](Cc2cnc[nH]2)NC(=O)[C@H](Cc2c[nH]c3ccccc23)NC(=O)[C@H](C)NC(=O)[C@@H]2CSSC[C@H](NC(=O)[C@H](Cc3c[nH]c4ccccc34)NC(=O)[C@H](C(C)C)NC(=O)[C@H](CC(C)C)NC(=O)[C@H](CCC(=O)O)NC(=O)CNC1=O)C(=O)N[C@@H]([C@@H](C)O)C(=O)N1CCC[C@@H]1C(=O)N1C[C@@H](NC(=O)COc3ccc(CC(=O)NC[C@H]4OC[C@H](Nc5cncc(C(F)(F)F)n5)[C@@H](O)[C@H]4O)cc3)C[C@H]1C(=O)N[C@@H](CC(=O)O)C(=O)N2 [Compound 61] | < 0.1 | < 0.1 | < 0.1 | < 0.1 |
| CC(C)C[C@@H]1NC(=O)[C@H](Cc2c[nH]cn2)NC(=O)[C@H](Cc2c[nH]c3ccccc23)NC(=O)[C@H](C)NC(=O)[C@@H]2CSSC[C@H](NC(=O)[C@H](Cc3c[nH]c4ccccc34)NC(=O)[C@H](C(C)C)NC(=O)[C@H](CC(C)C)NC(=O)[C@H](CCC(=O)O)NC(=O)CNC1=O)C(=O)N[C@@H]([C@@H](C)O)C(=O)N1CCC[C@@H]1C(=O)N1C[C@@H](NC(=O)CCOCCOCCOCCOCCNC(=O)CCCc3cn(CCCCCC(=O)NC(COCCC(=O)NCCOCCOCCOCCOC[C@@]45CO[C@@H](O4)[C@H](NC(=O)C(F)(F)F)[C@@H](O)[C@H]5O)COCCC(=O)NCCOCCOCCOCCOC[C@@]45CO[C@@H](O4)[C@H](NC(=O)C(F)(F)F)[C@@H](O)[C@H]5O)nn3)C[C@H]1C(=O)N[C@@H](CC(=O)O)C(=O)N2 [Compound 94] | < 0.1 | < 0.1 | < 0.1 | < 0.1 |
| CC(C)C[C@@H]1NC(=O)[C@H](Cc2cnc[nH]2)NC(=O)[C@H](Cc2c[nH]c3ccccc23)NC(=O)[C@H](C)NC(=O)[C@@H]2CSSC[C@H](NC(=O)[C@H](Cc3c[nH]c4ccccc34)NC(=O)[C@H](C(C)C)NC(=O)[C@H](CC(C)C)NC(=O)[C@H](CCC(=O)O)NC(=O)CNC1=O)C(=O)N[C@@H]([C@@H](C)O)C(=O)N1CCC[C@@H]1C(=O)N1C[C@@H](NC(=O)CCN3CCN(CC(=O)NC[C@H]4OC[C@H](Nc5cncc(C(F)(F)F)n5)[C@@H](O)[C@H]4O)CC3)C[C@H]1C(=O)N[C@@H](CC(=O)O)C(=O)N2 [Compound 63] | < 0.1 | < 0.1 | < 0.1 | 0.1 to 0.5 |
| CC(C)C[C@@H]1NC(=O)[C@H](Cc2cnc[nH]2)NC(=O)[C@H](Cc2c[nH]c3ccccc23)NC(=O)[C@H](C)NC(=O)[C@@H]2CSSC[C@H](NC(=O)[C@H](Cc3c[nH]c4ccccc34)NC(=O)[C@H](C(C)C)NC(=O)[C@H](CC(C)C)NC(=O)[C@H](CCC(=O)O)NC(=O)CNC1=O)C(=O)N[C@@H]([C@@H](C)O)C(=O)N1CCC[C@@H]1C(=O)N1C[C@@H](NC(=O)c3ccc(N4CCC(CN5CCN(C[C@H]6OC[C@H](Nc7cncc(C(F)(F)F)n7)[C@@H](O)[C@H]6O)CC5)CC4)nn3)C[C@H]1C(=O)N[C@@H](CC(=O)O)C(=O)N2 [Compound 66] | < 0.1 | < 0.1 | < 0.1 | < 0.1 |
| CC(C)C[C@@H]1NC(=O)[C@H](Cc2cnc[nH]2)NC(=O)[C@H](Cc2c[nH]c3ccccc23)NC(=O)[C@H](C)NC(=O)[C@@H]2CSSC[C@H](NC(=O)[C@H](Cc3c[nH]c4ccccc34)NC(=O)[C@H](C(C)C)NC(=O)[C@H](CC(C)C)NC(=O)[C@H](CCC(=O)O)NC(=O)CNC1=O)C(=O)N[C@@H]([C@@H](C)O)C(=O)N1CCC[C@@H]1C(=O)N1C[C@@H](NC(=O)c3ccc4c(c3)C(=O)c3cc(C(=O)NC[C@H]5OC[C@H](Nc6cncc(C(F)(F)F)n6)[C@@H](O)[C@H]5O)ccc3-4)C[C@H]1C(=O)N[C@@H](CC(=O)O)C(=O)N2 [Compound 64] | < 0.1 | < 0.1 | 0.1 to 0.5 | < 0.1 |
